Measured values as given in article PMC12441791, “Structural modifications of toxyloxanthone C and macluraxanthone isolated from Maclura cochinchinensis: cytotoxicity, antibacterial activity, and in silico studies” (RSC Advances, 2025).
≈ marks a conversion by molar mass, not a printed value. Where two headings read alike, the source gives them in different places.

Experiments:
S. aureus ATCC 25923 = assay: Antibacterial microdilution MIC, S. aureus; type: cell-based; settings: Staphylococcus aureus
Experimental: (§1) Four bacterial cultures Bacillus cereus ATCC 11778, Bacillus subtilis ATCC 6633, Staphylococcus aureus ATCC 25923, and Methicillin resistant Staphylococcus aureus (MRSA) were employed as the test organisms. Minimum inhibitory concentration (MIC) values were determined using the dilution method, as described in the M07-A9,[45] as described in our previous paper.[4,46]

[1] = tested on: MRSA, S. aureus, B. subtilis, and B. cereus; assay: Antibacterial activity stated over all four Gram-positive strains; type: cell-based; settings: for MIC / MIC against all bacterial strains tested: MRSA, S. aureus, B. subtilis, B. cereus taken together; for MIC: read-out: MIC against all bacterial strains tested; for fold improvement in antibacterial potency (MIC) compared to parent 1: all bacterial strains
Experimental: as §1

[2] = tested on: HelaS3, A549, and HepG2 cancer cell lines; assay: Cytotoxicity stated over the three cancer cell lines; type: cell-based, human; settings: HelaS3, A549, HepG2 taken together; for IC50: Homo sapiens, read-out: Cytotoxicity against three cancer cell lines (IC50 values, range over lines)
Experimental: (§2) All types of cancer and non-tumorigenic cells were purchased from ATCC. Cytotoxicity assays against human cervical carcinoma (HelaS3; ATCC CCL2-2), human hepatocellular carcinoma (HepG2; ATCC HB-8065), human lung carcinoma (A549; ATCC CCL-185), and African green monkey kidney (Vero; ATCC CCL-81) cell lines were performed by […].[44] Cells proliferation was performed using the MTT colorimetric assay,[44] as in our previous publication.[4]

[3] = tested on: Bacillus subtilis ATCC 6633; assay: Antibacterial microdilution MIC, B. subtilis; type: cell-based
Experimental: as §1

[4] = tested on: A549 (human lung carcinoma) cells; assay: In vitro cytotoxicity, A549; type: cell-based
Experimental: as §2

[5] = tested on: Methicillin resistant Staphylococcus aureus (MRSA); assay: Antibacterial microdilution MIC, MRSA; type: cell-based; settings: read-out: MIC MRSA
Experimental: as §1

[6] = tested on: HepG2 (human hepatocellular carcinoma) cells; assay: In vitro cytotoxicity, HepG2; type: cell-based
Experimental: as §2

[7] = In vitro cytotoxicity, Vero normal cells; type: cell-based, African green monkey; settings: African green monkey, Vero cells (kidney, non-tumorigenic)
Experimental: as §2

[8] = tested on: Vero (African green monkey kidney) cells; assay: In vitro cytotoxicity, Vero normal cells; type: cell-based
Experimental: as §2

[9] = tested on: Bacillus cereus ATCC 11778; assay: Antibacterial microdilution MIC, B. cereus; type: cell-based
Experimental: as §1

[10] = tested on: HelaS3 (human cervical carcinoma) cells; assay: In vitro cytotoxicity, HelaS3; type: cell-based; settings: HeLa S3
Experimental: as §2

[11] = ATCC25923, microdilution method, ATCC 25923, read-out: MIC S. aureus
[12] = ATCC6633, microdilution method, ATCC 6633, read-out: MIC B. subtilis
[13] = ATCC11778, microdilution method, ATCC 11778, read-out: MIC B. cereus

Row | SMILES | MIC (S. aureus ATCC 25923; [11]) | MIC [1] | fold improvement in antibacterial potency (MIC) compared to parent 1 [1] | IC50 [2] | MIC [3, 12] | IC50 [4] | MIC ([5]; microdilution method) | IC50 [6] | IC50 [7] | Cytotoxicity (IC50, μM) Vero [8] | MIC [9, 13] | IC50 [10] | Cytotoxicity against three cancer cell lines (IC50 values, range over lines) [2] | MIC (S. aureus ATCC 25923; ATCC25923, read-out: MIC S. aureus) | MIC ([3]; ATCC6633, read-out: MIC B. subtilis) | MIC [5] | MIC ([9]; ATCC11778, read-out: MIC B. cereus) | MIC against all bacterial strains tested [1]
1 | CC(=O)Oc1ccc2c(=O)c3c(O)c4c(cc3oc2c1OC(C)=O)OC(C)C4(C)C (stereo not shown) [Compound 1a, 5,6-Diacetoxytoxyloxanthone C] | 4 µg/mL (≈ 9.7 µM) | 4 µg/mL (≈ 9.7 µM) | 32 fold | 12.2 to 22.6 µM | 4 µg/mL (≈ 9.7 µM) | 12.2 ± 1.08 µM | 4 µg/mL (≈ 9.7 µM) | 21.1 ± 1.18 µM | > 100 µM | without showing cytotoxicity | 4 µg/mL (≈ 9.7 µM) | 22.6 ± 2.02 µM |  |  |  |  |  | 
2 | C=CC(C)(C)c1c2c(c(O)c3c(=O)c4ccc(OC)c(OC)c4oc13)C=CC(C)(C)O2 [Compound 2d, 5,6-Dimethoxymacluraxanthone] | > 128 µg/mL |  |  |  | > 128 µg/mL | > 100 µM | > 128 µg/mL | > 100 µM | > 100 µM |  | > 128 µg/mL | > 100 µM | no cytotoxicity |  |  |  |  | 
3 | C=CC(C)(C)c1c2c(c(O)c3c(=O)c4ccc(OCC)c(OCC)c4oc13)C=CC(C)(C)O2 [Compound 2f, 5,6-Diethoxymacluraxanthone] | > 128 µg/mL |  |  |  | > 128 µg/mL | > 100 µM | > 128 µg/mL | > 100 µM | > 100 µM |  | > 128 µg/mL | > 100 µM | no cytotoxicity |  |  |  |  | 
4 | CN[C@H](CC(C)C)C(=O)N[C@H]1C(=O)N[C@@H](CC(N)=O)C(=O)N[C@H]2C(=O)N[C@H]3C(=O)N[C@H](C(=O)N[C@H](C(=O)O)c4cc(O)cc(O)c4-c4cc3ccc4O)[C@H](O)c3ccc(c(Cl)c3)Oc3cc2cc(c3O[C@@H]2O[C@H](CO)[C@@H](O)[C@H](O)[C@H]2O[C@H]2C[C@](C)(N)[C@H](O)[C@H](C)O2)Oc2ccc(cc2Cl)[C@H]1O [Vancomycin, reference compound] |  |  |  |  |  |  |  |  |  |  |  |  |  | 2 µg/mL (≈ 1.38 µM) | 2 µg/mL (≈ 1.38 µM) | 2 µg/mL (≈ 1.38 µM) | 1 µg/mL (≈ 0.69 µM) | 
5 | CC1Oc2cc3oc4c(OS(C)(=O)=O)c(OS(C)(=O)=O)ccc4c(=O)c3c(O)c2C1(C)C (stereo not shown) [Compound 1c, 5,6-Dimesyloxytoxyloxanthone C] | > 128 µg/mL |  |  |  | > 128 µg/mL | > 100 µM | > 128 µg/mL | > 100 µM | > 100 µM |  | > 128 µg/mL | 65.3 ± 3.92 µM |  |  |  |  |  | no antibacterial activity
6 | CCOc1ccc2c(=O)c3c(O)c4c(cc3oc2c1OCC)OC(C)C4(C)C (stereo not shown) [Compound 1e, 5,6-Diethoxytoxyloxanthone C] | > 128 µg/mL |  |  |  | > 128 µg/mL | > 100 µM | > 128 µg/mL | > 100 µM | > 100 µM |  | > 128 µg/mL | 50.4 ± 8.45 µM |  |  |  |  |  | no antibacterial activity
7 | CCCCC(=O)Oc1ccc2c(=O)c3c(OC(=O)CCCC)c4c(cc3oc2c1OC(=O)CCCC)OC(C)C4(C)C (stereo not shown) [Compound 1b, 1,5,6-Tripentanoyloxytoxyloxanthone C] | 8 µg/mL (≈ 13.8 µM) | 8 to 16 µg/mL (≈ 13.8 to 27.6 µM) |  |  | 8 µg/mL (≈ 13.8 µM) | 5.77 ± 2.14 µM | 8 µg/mL (≈ 13.8 µM) | 17.2 ± 4.5 µM | 5.59 ± 0.36 µM | strong cytotoxicity | 16 µg/mL (≈ 27.6 µM) | 20.5 ± 4.92 µM |  |  |  |  |  | 
8 | C=CC(C)(C)c1c2c(c(O)c3c(=O)c4ccc(O)c(OCC)c4oc13)C=CC(C)(C)O2 [Compound 2g, 5-Ethoxymacluraxanthone] | > 128 µg/mL |  |  |  | > 128 µg/mL | > 100 µM | > 128 µg/mL | > 100 µM | > 100 µM |  | > 128 µg/mL | > 100 µM | no cytotoxicity |  |  |  |  | 
9 | C=CC(C)(C)c1c2c(c(O)c3c(=O)c4ccc(OC(C)=O)c(OC(C)=O)c4oc13)C=CC(C)(C)O2 [Compound 2a, 5,6-Diacetoxymacluraxanthone] | 16 µg/mL (≈ 33.4 µM) | 8 to 32 µg/mL (≈ 16.7 to 66.9 µM) |  | 15.7 to 25.6 µM | 32 µg/mL (≈ 66.9 µM) | 15.7 ± 1.17 µM | 8 µg/mL (≈ 16.7 µM) | 24.5 ± 2.98 µM | 10.1 ± 1.67 µM |  | 16 µg/mL (≈ 33.4 µM) | 25.6 ± 4.77 µM |  |  |  |  |  | 
10 | C=CC(C)(C)c1c2c(c(O)c3c(=O)c4ccc(O)c(OC)c4oc13)C=CC(C)(C)O2 [Compound 2e, 5-Methoxymacluraxanthone] | > 128 µg/mL |  |  |  | > 128 µg/mL | 90.5 ± 6.23 µM | > 128 µg/mL | > 100 µM | > 100 µM |  | > 128 µg/mL | > 100 µM |  |  |  |  |  | 
11 | C=CC(C)(C)c1c2c(c(OC(=O)CCCC)c3c(=O)c4ccc(OC(=O)CCCC)c(OC(=O)CCCC)c4oc13)C=CC(C)(C)O2 [Compound 2b, 1,5,6-Tripentanoyloxymacluraxanthone] | > 128 µg/mL |  |  |  | > 128 µg/mL | 41.8 ± 1.91 µM | > 128 µg/mL | > 100 µM | 36 ± 2.32 µM |  | > 128 µg/mL | 55.3 ± 2.18 µM |  |  |  |  |  | 
12 | COc1cccc2c1C(=O)c1c(O)c3c(c(O)c1C2=O)C[C@@](O)(C(=O)CO)C[C@@H]3O[C@H]1C[C@H](N)[C@H](O)[C@H](C)O1 [Doxorubicin, reference compound] |  |  |  |  |  | 0.48 ± 0.036 µM |  | 0.37 ± 0.02 µM | 1.95 ± 0.13 µM |  |  | 0.29 ± 0.02 µM |  |  |  |  |  | 
13 | CC1Oc2c(c(O)c3c(=O)c4ccc(O)c(O)c4oc3c2Br)C1(C)C (stereo not shown) [Compound 1f, 4-Bromotoxyloxanthone C] | 4 µg/mL (≈ 9.82 µM) | 4 µg/mL (≈ 9.82 µM) | 32 fold |  | 4 µg/mL (≈ 9.82 µM) | 7.52 ± 0.36 µM | 4 µg/mL (≈ 9.82 µM) | 19.4 ± 1.52 µM | 9.52 ± 1.02 µM | cytotoxic toward normal cells | 4 µg/mL (≈ 9.82 µM) | 17.4 ± 1.75 µM |  |  |  |  |  | 
14 | C=CC(C)(C)c1c2c(c(O)c3c(=O)c4ccc(OS(C)(=O)=O)c(OS(C)(=O)=O)c4oc13)C=CC(C)(C)O2 [Compound 2c, 5,6-Dimesyloxymacluraxanthone] | > 128 µg/mL |  |  |  | > 128 µg/mL | 48.8 ± 4.73 µM | > 128 µg/mL | > 100 µM | > 100 µM |  | > 128 µg/mL | 84.3 ± 7.86 µM |  |  |  |  |  | 
15 | COc1ccc2c(=O)c3c(O)c4c(cc3oc2c1OC)OC(C)C4(C)C (stereo not shown) [Compound 1d, 5,6-Dimethoxytoxyloxanthone C] | > 128 µg/mL |  |  |  | > 128 µg/mL | > 100 µM | > 128 µg/mL | > 100 µM | > 100 µM |  | > 128 µg/mL | > 100 µM | no cytotoxicity |  |  |  |  | no antibacterial activity
